From ChEMBL document CHEMBL1201862, “PubChem BioAssay data set” (2004)
Active and inactive are the calls of the source.

Tests used:
[1] = molecular target: Endoplasmic reticulum aminopeptidase 1 (Homo sapiens, UniProt Q9NZ08); experiment: ERAP1 aminopeptidase inhibitors, dose response, biochemical, cherry-pick, set 2, plate reader (AID 743314)
cells [2] = experiment: cells
cells [3] = conditions: HEK293
cells [4] = conditions: A549
Streptococcus = experiment: Group A Streptococcus viability loss, dose response, counter-screen for streptokinase expression inhibitor project, luminescence, BacTiterGlo (AID 1915); format: functional, organism-based;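 note: potency for reduction of bacterial viability or growth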
[5] = test system: Streptococcus sp. 'group A'; experiment: growth inhibition of control SK(-) GAS strain, dose response, counter-screen for streptokinase expression inhibitor project, luminescence, kanamycin, BacTiterGlo, confirmation (AID 1900); format: functional, organism-based
[6] = NIH-3T3 fibroblast cytotoxicity, dose response, cytotoxicity control, cell-based, fluorescence, Alamar Blue, secondary assay (AID 2327); format: functional;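 note: NIH-3T3 mouse fibroblasts cultured with fluconazole at 8 µg/mL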
Vero = experiment: cells; format: functional; conditions: Chlorocebus sabaeus
[7] = inhibitors of intracellular T. cruzi replication, confirmation, NIH3T3 host cells, beta-gal luminescence (AID 2044); format: functional, cell-based;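 note: intracellular parasites grown in NIH/3T3 mouse fibroblasts as host cells; luminescent beta-galactosidase reporter signal from transgenic T. cruzi replicating inside host cells; inhibitors lower the luminescence signal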
[8] = human group III sPLA2 inhibitors, dose response, biochemical, QFRET, IC50 (AID 743457);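 note: green fluorescence rise as the enzyme cleaves BODIPY PC-A2 in liposomes; potency for inhibition of the enzyme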
[9] = C. albicans growth with fluconazole, confirmation, fluorescence, retest (AID 2467); format: functional, cell-based
[10] = HEK293T cytotoxicity, dose response, cytotoxicity control for miR-122 modulator project, cell-based, activator set, cherry-pick (AID 720690); format: functional;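 note: HEK293T human cells scored for general mammalian cytotoxicity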
[11] = HEK293T cytotoxicity, dose response, cytotoxicity control for miR-122 modulator project, cell-based, inhibitor set, cherry-pick, set 2 (AID 720697); format: functional
INS1 = experiment: beta cell apoptosis inhibitors, cytokine rescue, dose response, luminescence, retest (AID 449756); format: functional, cell-based; conditions: Rattus norvegicus;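 note: cell death triggered by IL-1 beta plus TNF-alpha plus IFN-gamma mixture; protective hits raise ATP signal compared with cytokine alone wells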
[12] = control 3'UTR Renilla luciferase suppression, dose response, counter-screen for Shn3 inhibitor project, cell-based, Clone20-Shn3RL, cherry-picked (AID 624133); format: functional
[13] = cytotoxicity toward NIH3T3 fibroblasts, dose response, counter-screen, cell-based, ATP luminescence, mouse fibroblasts (AID 2010); format: functional;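 note: cells exposed to compound for about 90 hours before reading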
HEK293 = experiment: inhibitors of LMP1-driven NF-kB reporter, dose response, cell-based, HEK293, luciferase, cherry-pick (AID 588343); format: functional; conditions: Homo sapiens
[14] = Shn3 3'UTR reporter inhibitors, dose response, cell-based, Clone20 osteoblasts, firefly luciferase, cherry-picked (AID 624132); format: functional;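 note: firefly luciferase luminescence from reporter carrying the Shn3 3'UTR in osteoblasts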
[15] = HepG2 cell cytotoxicity, dose response, cytotoxicity control for Shn3 inhibitor project, CellTiter-Glo, cherry-picked (AID 624134); format: functional, cell-based
[16] = inhibitors of control Renilla luciferase reporter, dose response, counter-screen for Shn3 3'UTR targeting project, Clone20-Shn3RL cells, dual-Glo, cherry-pick, set 2 (AID 720724); format: functional, cell-based; conditions: Dual-Go Shn3RL
[17] = reduction of Shn3 3'UTR firefly luciferase signal, dose response, Schnurri-3 inhibitor project, cell-based, Clone20 osteoblasts, cherry-pick, set 2 (AID 720490); format: functional;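 note: actives lower the luminescence signal as inhibitors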
[18] = LGR2 antagonists, dose response, cell-based, HEK293, CRE-luciferase reporter, cherry pick, set 2 (AID 743343); format: functional;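 note: transfected cells were stimulated with diluted bursicon conditioned medium after compound addition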
[19] = inhibitors of clade B AD8 Env fusion, dose response, cell-based, cherry-pick (AID 652062); format: functional;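 note: luciferase signal from cell-cell fusion driven by HIV-1 clade B AD8 Env; potency is for inhibitors of fusion seen as a drop in luminescence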
[20] = HepG2 cell cytotoxicity, dose response, cytotoxicity control, plate reader, cherry-pick, antagonist series (AID 743416); format: functional, cell-based
[21] = inhibitors of HIV Env-driven cell fusion, dose response, cherry-pick (AID 652057); format: functional, cell-based
[22] = HEK293 cell cytotoxicity, dose response, cytotoxicity control, plate reader, cherry-picked samples (AID 743446); format: functional, cell-based
[23] = CEM21 lymphoblast cell cytotoxicity, dose response, cytotoxicity control for viral fusion inhibitor project, CellTiter-Glo luminescence, cherry-picked (AID 652042); format: functional, cell-based;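 note: potency for signal decrease meaning cytotoxicity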
[24] = off-target signal loss in HeLa-CEM21 co-culture – HeLa F-luc CTL cells, cherry-picked, counter-screen for HIV-1 Env fusion inhibitor project, dose response (AID 652040); format: functional, cell-based;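 note: potency for signal decrease marking cytotoxic or nonspecific inhibition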
[25] = MC4R antagonists, dose response, counter-screen for LGR2 antagonist project, cell-based, plate reader, cherry pick (AID 743444); format: functional;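 note: transfected HEK 293 cells stimulated with alpha-MSH peptide; potency of inhibitors of the alpha-MSH evoked signal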
[26] = A549 cell cytotoxicity, dose response, cytotoxicity control, plate reader, cherry-pick, antagonist series (AID 743412); format: functional, cell-based
[27] = ZM109 Env clade C HIV-1 fusion inhibitors, dose response, HeLa effector, CEM target cells, luciferase, cherry-pick (AID 652058); format: functional, cell-based
Cryptococcus neoformans [28] = experiment: PubChem AID 686997; format: functional, organism-based
Cryptococcus neoformans [29] = experiment: Cryptococcus growth inhibition by alamar blue – cell lysis, cherry-picks, replicate tests, mechanism study for C. neoformans antifungal project, dose response (AID 686999); format: functional, organism-based

Endoplasmic reticulum aminopeptidase 1, sequence (Q9NZ08 whole entry): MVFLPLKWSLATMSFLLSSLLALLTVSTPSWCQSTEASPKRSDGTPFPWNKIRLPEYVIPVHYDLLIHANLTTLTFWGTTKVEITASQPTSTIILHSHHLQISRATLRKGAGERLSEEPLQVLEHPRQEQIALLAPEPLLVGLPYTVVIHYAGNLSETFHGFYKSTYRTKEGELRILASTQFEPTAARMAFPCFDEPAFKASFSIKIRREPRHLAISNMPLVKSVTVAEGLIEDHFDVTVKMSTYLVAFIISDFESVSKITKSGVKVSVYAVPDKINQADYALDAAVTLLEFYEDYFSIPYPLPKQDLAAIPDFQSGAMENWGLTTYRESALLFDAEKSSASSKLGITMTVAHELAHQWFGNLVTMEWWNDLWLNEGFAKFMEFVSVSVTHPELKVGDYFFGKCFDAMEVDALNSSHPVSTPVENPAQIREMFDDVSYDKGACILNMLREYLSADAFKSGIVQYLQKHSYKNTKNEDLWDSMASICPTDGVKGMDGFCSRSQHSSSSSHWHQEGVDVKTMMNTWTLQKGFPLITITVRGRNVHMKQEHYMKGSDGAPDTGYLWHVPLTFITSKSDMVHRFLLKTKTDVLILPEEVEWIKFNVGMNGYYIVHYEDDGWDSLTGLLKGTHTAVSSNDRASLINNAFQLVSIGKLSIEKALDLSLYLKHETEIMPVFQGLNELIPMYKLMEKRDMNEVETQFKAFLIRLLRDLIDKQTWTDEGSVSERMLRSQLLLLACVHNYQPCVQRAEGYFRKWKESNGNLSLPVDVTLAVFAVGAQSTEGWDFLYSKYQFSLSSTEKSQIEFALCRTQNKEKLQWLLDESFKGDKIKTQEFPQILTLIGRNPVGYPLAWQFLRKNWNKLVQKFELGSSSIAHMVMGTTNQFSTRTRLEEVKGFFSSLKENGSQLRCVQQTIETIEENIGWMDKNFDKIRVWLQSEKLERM

Cc1c(C)c2ccc(O)c(CN3CCN(C)CC3)c2oc1=O
AC50 [1]: 10.8 µM (active)

COCCn1c(=N)c(S(=O)(=O)c2ccc(F)cc2)cc2c(=O)n3ccccc3nc21
AC50 (cells [2]): 1.5 µM (active) | AC50 (cells [3]): > 52 µM (inactive)

CCN(CC)c1ccc2c(C)c(Cl)c(=O)oc2c1
AC50 (cells [4]): > 52 µM (inactive)

Cc1cc(C(=O)Nc2nc(-c3ccccn3)cs2)ccc1[N+](=O)[O-]
EC50 (Streptococcus): 7.36 µM (active) | EC50 [5]: 0.471 µM (active) | EC50 [6]: > 150 µM (inactive) | CC50 (Vero): > 25 µM (active) | EC50 [7]: 1.11 µM (active) | IC50 [8]: > 122 µM (inactive) | EC50 [9]: 1.25 µM (active)

COc1ccc(C(NC(C)=O)c2cc(Cl)c3cccnc3c2O)cc1 (centres undefined)
AC50 [10]: 12.1 µM (active) | AC50 [11]: 2.06 µM (active) | AC50 (INS1): 1.95 µM (active) | AC50 [12]: 1.66 µM (active) | EC50 [7]: 1.47 µM (active) | EC50 [13]: 4.23 µM (active) | AC50 (HEK293): 4.38 µM (active) | AC50 [14]: 1.61 µM (active) | AC50 [15]: 3.17 µM (active)

CC1CCCC(NC(=O)c2cccc(S(=O)(=O)N3CCN(c4ccccc4)CC3)c2)C1C (centres undefined)
AC50 [16]: 25.2 µM (active) | AC50 [12]: > 70 µM (inactive) | AC50 [14]: 3.14 µM (active) | AC50 [17]: 4.29 µM (active) | AC50 [15]: > 70 µM (inactive)

Cc1nc(N/N=C/c2ccccn2)sc1C
AC50 [18]: 0.573 µM (active) | AC50 [19]: 6.45 µM (active) | AC50 [20]: 2.7 µM (active) | AC50 (INS1): 3.83 µM (active) | AC50 [21]: 3.74 µM (active) | AC50 [22]: 7.53 µM (active) | AC50 [23]: 6.02 µM (active) | AC50 [24]: 13.5 µM (active) | AC50 [25]: 0.949 µM (active) | AC50 [26]: 5.22 µM (active) | AC50 [27]: 18.8 µM (active)

COC(=O)C1=C(C)N(Cc2ccc(Cl)cc2)C(=S)NC1c1ccc(F)cc1 (centres undefined)
AC50 (Cryptococcus neoformans [28]): 35.4 µM (active) | AC50 (Cryptococcus neoformans [28]; Cryptococcus neoformans): 23.6 µM (active) | AC50 (Cryptococcus neoformans [29]): 43 µM (active)
